Data: ChEMBL document CHEMBL3045008, “Toxicity, inheritance of fenpyroximate resistance, and detoxification-enzyme levels in a laboratory-selected fenpyroximate-resistant strain of Tetranychus urticae Koch (Acari: Tetranychidae)” (2011)

How the values were obtained:
Format in all cases: functional
Tetranychus urticae [1] = experiment: Resistant ratio, LC50 for Tetranychus urticae FPY 14 (two-spotted spider mite) to LC50 for Tetranychus urticae GSS
Tetranychus urticae [2] = experiment: Insecticidal activity against Tetranychus urticae FPY 14 (two-spotted spider mite) assessed as mortality at 26 +/- 2 degC with 60 +/- 5% RH for first 24 hr
Tetranychus urticae [3] = experiment: Insecticidal activity against Tetranychus urticae GSS (two-spotted spider mite) assessed as mortality at 26 +/- 2 degC with 60 +/- 5% RH for first 24 hr

Row | SMILES | RatioLC50 (Tetranychus urticae [1]) | LC50 (Tetranychus urticae [2]) [mgAi/L] | LC50 (Tetranychus urticae [3]) [mgAi/L] | LC60 (Tetranychus urticae [2]) [mgAi/L] | LC90 (Tetranychus urticae [2]) [mgAi/L] | LC60 (Tetranychus urticae [3]) [mgAi/L] | LC90 (Tetranychus urticae [3]) [mgAi/L]
1 | Cc1c(COC(=O)[C@@H]2[C@H](/C=C(\Cl)C(F)(F)F)C2(C)C)cccc1-c1ccccc1 (relative stereo) [BIFENTHRIN] | <1 | 12.77 | 54.53 | – | – | – | –
2 | CC[C@H](C)[C@H]1O[C@]2(C=C[C@@H]1C)C[C@@H]1C[C@@H](C/C=C(\C)[C@@H](O[C@H]3C[C@H](OC)[C@@H](O[C@H]4C[C@H](OC)[C@@H](O)[C@H](C)O4)[C@H](C)O3)[C@@H](C)/C=C/C=C3\CO[C@@H]4[C@H](O)C(C)=C[C@@H](C(=O)O1)[C@]34O)O2.CO[C@H]1C[C@H](O[C@H]2[C@H](C)O[C@@H](O[C@@H]3/C(C)=C/C[C@@H]4C[C@@H](C[C@]5(C=C[C@H](C)[C@@H](C(C)C)O5)O4)OC(=O)[C@@H]4C=C(C)[C@@H](O)[C@H]5OC/C(=C\C=C\[C@@H]3C)[C@]54O)C[C@@H]2OC)O[C@@H](C)[C@@H]1O [ABAMECTIN] | 7.8 | 1.56 | 0.2 | – | – | – | –
3 | Cc1ccc(/N=C/N(C)/C=N/c2ccc(C)cc2C)c(C)c1 [AMITRAZ] | 2.78 | 167.13 | 60.07 | – | – | – | –
4 | CCOP(=S)(OCC)Oc1nc(Cl)c(Cl)cc1Cl [CHLORPYRIFOS] | 6.9 | 85.84 | 12.44 | – | – | – | –
5 | Clc1ccccc1-c1nnc(-c2ccccc2Cl)nn1 [CLOFENTEZINE] | 4.78 | 68.52 | 14.32 | – | – | – | –
6 | Cc1nn(C)c(Oc2ccccc2)c1/C=N/OCc1ccc(C(=O)OC(C)(C)C)cc1 [FENPYROXYMATE] | – | – | – | 319.1 | 1637.86 | 5.1 | 29.5
7 | C#CCOS(=O)OC1CCCCC1Oc1ccc(C(C)(C)C)cc1 (configuration not stated) [PROPARGITE] | 6.43 | 482.52 | 75 | – | – | – | –
